# Assay results taken from patent US20150148235A1, “HERBICIDE-RESISTANT SUNFLOWER PLANTS WITH MULTIPLE HERBICIDE RESISTANT ALLELES OF AHASL1 AND METHODS OF USE” (NIDERA S.A., priority 2013, published 2015).
# Tested on: sunflower hybrids and lines (A122T, A205V, A205V/A122T)
# Test: Field trial North Dakota 2006, phytotoxicity ratings after imazamox or imazapyr, Example 3
# Format: in vivo, Helianthus annuus
# Protocol: • Spray volume: 10 gallons per acre (GPA) (or 100 liters/ha) for backpack sprayer or 20 GPA (or 200 liters/ha) for tractor mounted boom • Growth Stage at Herbicide Application: 2-4 leaves
# Entry 15 (WT Maintainer line) was left unsprayed in all treatment blocks.
# Phytotoxicity ratings were assessed at 7 and 21 days following herbicide application.
# The data was subjected to an ANOVA analysis and the means from the 3 repetitions are presented in Table 7 (phytotoxicity at 7 days post-treatment) and Table 8 (phytotoxicity at 21 days post-treatment).
smiles,measurement,setting,value
COCc1cnc(C2=NC(C)(C(C)C)C(=O)N2)c(C(=O)O)c1 (stereo not shown) [imazamox],Phytotoxicity Rating (% Crop Injury),"1-hybrid (WT × IMI restorer, A205 hetero), 50 g ai/ha + 0.25% NIS, 7 DAT",8.3%
same,Phytotoxicity Rating (% Crop Injury),"1-hybrid (WT × IMI restorer, A205 hetero), 50 g ai/ha + 0.25% NIS, 21 DAT",6.7%
same,Phytotoxicity Rating (% Crop Injury),"1-hybrid (WT × IMI restorer, A205 hetero), 100 g ai/ha + 0.25% NIS, 7 DAT",35.0%
same,Phytotoxicity Rating (% Crop Injury),"1-hybrid (WT × IMI restorer, A205 hetero), 100 g ai/ha + 0.25% NIS, 21 DAT",25.0%
same,Phytotoxicity Rating (% Crop Injury),"1-hybrid (WT × IMI restorer, A205 hetero), 200 g ai/ha + 0.25% NIS, 7 DAT",48.3%
same,Phytotoxicity Rating (% Crop Injury),"1-hybrid (WT × IMI restorer, A205 hetero), 200 g ai/ha + 0.25% NIS, 21 DAT",73.3%
same,Phytotoxicity Rating (% Crop Injury),"3-hybrid (WT × IMI restorer, A205 hetero), 50 g ai/ha + 0.25% NIS, 7 DAT",11.7%
same,Phytotoxicity Rating (% Crop Injury),"3-hybrid (WT × IMI restorer, A205 hetero), 50 g ai/ha + 0.25% NIS, 21 DAT",11.7%
same,Phytotoxicity Rating (% Crop Injury),"3-hybrid (WT × IMI restorer, A205 hetero), 100 g ai/ha + 0.25% NIS, 7 DAT",46.7%
same,Phytotoxicity Rating (% Crop Injury),"3-hybrid (WT × IMI restorer, A205 hetero), 100 g ai/ha + 0.25% NIS, 21 DAT",46.7%
same,Phytotoxicity Rating (% Crop Injury),"3-hybrid (WT × IMI restorer, A205 hetero), 200 g ai/ha + 0.25% NIS, 7 DAT",60.0%
same,Phytotoxicity Rating (% Crop Injury),"3-hybrid (WT × IMI restorer, A205 hetero), 200 g ai/ha + 0.25% NIS, 21 DAT",76.7%
same,Phytotoxicity Rating (% Crop Injury),"4-line (IMI Restorer, A205 homo), 50 g ai/ha + 0.25% NIS, 7 DAT",6.7%
same,Phytotoxicity Rating (% Crop Injury),"4-line (IMI Restorer, A205 homo), 50 g ai/ha + 0.25% NIS, 21 DAT",5.0%
same,Phytotoxicity Rating (% Crop Injury),"4-line (IMI Restorer, A205 homo), 100 g ai/ha + 0.25% NIS, 7 DAT",6.7%
same,Phytotoxicity Rating (% Crop Injury),"4-line (IMI Restorer, A205 homo), 100 g ai/ha + 0.25% NIS, 21 DAT",6.7%
same,Phytotoxicity Rating (% Crop Injury),"4-line (IMI Restorer, A205 homo), 200 g ai/ha + 0.25% NIS, 7 DAT",18.3%
same,Phytotoxicity Rating (% Crop Injury),"4-line (IMI Restorer, A205 homo), 200 g ai/ha + 0.25% NIS, 21 DAT",15.0%
same,Phytotoxicity Rating (% Crop Injury),"6-hybrid (IMI CMS × IMI restorer, A205 homo), 50 g ai/ha + 0.25% NIS, 7 DAT",5.0%
same,Phytotoxicity Rating (% Crop Injury),"6-hybrid (IMI CMS × IMI restorer, A205 homo), 50 g ai/ha + 0.25% NIS, 21 DAT",0.0%
same,Phytotoxicity Rating (% Crop Injury),"6-hybrid (IMI CMS × IMI restorer, A205 homo), 100 g ai/ha + 0.25% NIS, 7 DAT",8.3%
same,Phytotoxicity Rating (% Crop Injury),"6-hybrid (IMI CMS × IMI restorer, A205 homo), 100 g ai/ha + 0.25% NIS, 21 DAT",3.3%
same,Phytotoxicity Rating (% Crop Injury),"6-hybrid (IMI CMS × IMI restorer, A205 homo), 200 g ai/ha + 0.25% NIS, 7 DAT",26.7%
same,Phytotoxicity Rating (% Crop Injury),"6-hybrid (IMI CMS × IMI restorer, A205 homo), 200 g ai/ha + 0.25% NIS, 21 DAT",21.7%
same,Phytotoxicity Rating (% Crop Injury),"7-hybrid (WT-CMS × IMI restorer, A205 hetero), 50 g ai/ha + 0.25% NIS, 7 DAT",13.3%
same,Phytotoxicity Rating (% Crop Injury),"7-hybrid (WT-CMS × IMI restorer, A205 hetero), 50 g ai/ha + 0.25% NIS, 21 DAT",3.3%
same,Phytotoxicity Rating (% Crop Injury),"7-hybrid (WT-CMS × IMI restorer, A205 hetero), 100 g ai/ha + 0.25% NIS, 7 DAT",43.3%
same,Phytotoxicity Rating (% Crop Injury),"7-hybrid (WT-CMS × IMI restorer, A205 hetero), 100 g ai/ha + 0.25% NIS, 21 DAT",40.0%
same,Phytotoxicity Rating (% Crop Injury),"7-hybrid (WT-CMS × IMI restorer, A205 hetero), 200 g ai/ha + 0.25% NIS, 7 DAT",56.7%
same,Phytotoxicity Rating (% Crop Injury),"7-hybrid (WT-CMS × IMI restorer, A205 hetero), 200 g ai/ha + 0.25% NIS, 21 DAT",78.3%
same,Phytotoxicity Rating (% Crop Injury),"8-hybrid (WT × GM40 restorer, A122 hetero), 50 g ai/ha + 0.25% NIS, 7 DAT",13.3%
same,Phytotoxicity Rating (% Crop Injury),"8-hybrid (WT × GM40 restorer, A122 hetero), 50 g ai/ha + 0.25% NIS, 21 DAT",6.7%
same,Phytotoxicity Rating (% Crop Injury),"8-hybrid (WT × GM40 restorer, A122 hetero), 100 g ai/ha + 0.25% NIS, 7 DAT",13.3%
same,Phytotoxicity Rating (% Crop Injury),"8-hybrid (WT × GM40 restorer, A122 hetero), 100 g ai/ha + 0.25% NIS, 21 DAT",11.7%
same,Phytotoxicity Rating (% Crop Injury),"8-hybrid (WT × GM40 restorer, A122 hetero), 200 g ai/ha + 0.25% NIS, 7 DAT",25.0%
same,Phytotoxicity Rating (% Crop Injury),"8-hybrid (WT × GM40 restorer, A122 hetero), 200 g ai/ha + 0.25% NIS, 21 DAT",28.3%
same,Phytotoxicity Rating (% Crop Injury),"9-line (GM40 restorer, A122 homo), 50 g ai/ha + 0.25% NIS, 7 DAT",1.7%
same,Phytotoxicity Rating (% Crop Injury),"9-line (GM40 restorer, A122 homo), 50 g ai/ha + 0.25% NIS, 21 DAT",0.0%
same,Phytotoxicity Rating (% Crop Injury),"9-line (GM40 restorer, A122 homo), 100 g ai/ha + 0.25% NIS, 7 DAT",5.0%
same,Phytotoxicity Rating (% Crop Injury),"9-line (GM40 restorer, A122 homo), 100 g ai/ha + 0.25% NIS, 21 DAT",0.0%
same,Phytotoxicity Rating (% Crop Injury),"9-line (GM40 restorer, A122 homo), 200 g ai/ha + 0.25% NIS, 7 DAT",10.0%
same,Phytotoxicity Rating (% Crop Injury),"9-line (GM40 restorer, A122 homo), 200 g ai/ha + 0.25% NIS, 21 DAT",3.3%
same,Phytotoxicity Rating (% Crop Injury),"10-hybrid (IMI CMS × GM40 restorer, A205/A122 hetero/double), 50 g ai/ha + 0.25% NIS, 7 DAT",3.3%
same,Phytotoxicity Rating (% Crop Injury),"10-hybrid (IMI CMS × GM40 restorer, A205/A122 hetero/double), 50 g ai/ha + 0.25% NIS, 21 DAT",0.0%
same,Phytotoxicity Rating (% Crop Injury),"10-hybrid (IMI CMS × GM40 restorer, A205/A122 hetero/double), 100 g ai/ha + 0.25% NIS, 7 DAT",3.3%
same,Phytotoxicity Rating (% Crop Injury),"10-hybrid (IMI CMS × GM40 restorer, A205/A122 hetero/double), 100 g ai/ha + 0.25% NIS, 21 DAT",0.0%
same,Phytotoxicity Rating (% Crop Injury),"10-hybrid (IMI CMS × GM40 restorer, A205/A122 hetero/double), 200 g ai/ha + 0.25% NIS, 7 DAT",10.0%
same,Phytotoxicity Rating (% Crop Injury),"10-hybrid (IMI CMS × GM40 restorer, A205/A122 hetero/double), 200 g ai/ha + 0.25% NIS, 21 DAT",1.7%
same,Phytotoxicity Rating (% Crop Injury),"11-hybrid (GM40 CMS × IMI restorer, A205/A122 hetero/double), 50 g ai/ha + 0.25% NIS, 7 DAT",0.0%
